The values below come from patent US9169481B2, “Cell-mediated directed evolution” (priority 2006, dated 2015).

“And” between values parts separate entries of the source, which are not always exact repeats. Identical values can stand only once.

The target in data set [1] is lipocalin (de novo selected). Conditions: Beste et al., 1999; read-out: dissociation constant; cited from earlier work.
Data set [2] concerns O=[N+]([O-])c1ccc(O[C@@H]2O[C@H](CO)[C@@H](O[C@@H]3O[C@H](CO)[C@@H](O)[C@H](O)[C@H]3O)[C@H](O)[C@H]2O)cc1. Kind of data set: Steady-state kinetics of pNPC hydrolysis (release of p-nitrophenol), CelN. It counts as biochemical, Erwinia carotovora. As to conditions: other: pNPC, pH 7, room temperature. From the text: (§1) The DNA shuffling vector, pPPY2148, was constructed by digesting p425Met25 (ATCC) with HindIII and PstI and introducing an 800 bp stuffer flanked by SfiI sites. The catalytic domain of four family 5 cellulases with 77-90% sequence identity, E. carotovora CelN (Olsen et al., 1996, Biotechnology (N Y) 14:71-76), CelVI (Mae and Palva, 1995, Mol Gen Genet. 247:17-26), CelA (Park et al., 1997, Biochem Biophys Res Commun. 241:636-641) and CelT (cloned from the E. carotovora subs. atroceptica (Bell et al., 2004, Proc Natl Acad Sci USA. 101: 11105-11110) genomic DNA) were cloned into pPY2148 to create plasmids pPPY2230, pPPY2232, pPPY2234 and pPPY2236 respectively. A ^6His-tag was added at the C-terminus of the four parent genes to facilitate protein purification after selection. The catalytic domain of these cellulases was identified by sequence comparison with the catalytic domain of Bacillus agaradhaerens Cel5A, which has 68% sequence identity at the amino acid level with the parent genes and which three dimensional X-ray structure is available (Davies et al., 1998, Biochemistry 37: 1926-1932; Davies et al., 1998, Biochemistry 37: 11707-11713; Varrot et al., 2000, J Mol Biol. 297: 819-828; Varrot et al., 2001, Acta Crystallogr D Biol Crystallogr. 57: 1739-1742; Varrot and Davies, 2003, Acta Crystallogr D Biol Crystallogr. 59: 447-452). The cellulase genes were shuffled using standard procedures with slight variations (Zhao and Arnold, 1997, Nucleic Acids Res. 25: 1307-1308). To introduce the shuffled product into the shuffling vector via homologous recombination, 30 bp homology to the shuffling vector was introduced at the 5′ and 3′ end of the shuffled product by carrying an extra amplification step of the shuffling product primers VC1658-VC1659. 7.5 ng of shuffled product (1.4E11 shuffled product molecules assuming each base pair is 330M and the shuffled product was 1000 bp) was used as a template in a 100 ul amplification reaction. The product was purified in a 2% agarose gel.
(§2) Ten colonies selected on day 8 and 9 were characterized in vitro using para-nitrophenyl cellobioside (pNPC) as a substrate. The cellulase chimeras were amplified from the shuffling vector using primers PPY100 and PPY103 and subcloned into the T7-expression vectors pAED4 between NdeI and HindIII sites. The cellulase chimeras were over expressed in E. coli and purified using a Nickel affinity column. Protein concentration was determined using the extinction coefficient of the parent genes ε=76890 and absorption at A280. To determine the kinetic constants for the hydrolysis of pNPC, the cellulase chimeras were incubated at room temperature in phosphate buffer (25 mM K2HPO4, 100 mM NaCl, pH=7) containing various concentrations of the substrate, and the release of p-nitrophenol (εpH=7=4000M^−1 cm^−1, A420) was recorded continuously in a SpectraMax Plus 384 spectrophotometer.
(§3) The three starting cellulases and the improved cellulase variants were subcloned into the E. coli T7 vector, pAED4, between NdeI and HindIII sites to give vectors pPPY2256 (CelN), pPPY2258 (CelA), pPPY2257 (CelV), pPPY2291 (Cel—3.7), and pPPY2292 (Cel—5.7). The cellulases were purified using Quick spin Ni-NTA affinity column (Qiagen). Protein concentration was determined using the extinction coefficient of the starting genes (ε=76670) and absorption at 280 nm. […] The release of p-nitrophenol (εpH 7=4000M−1 cm−1, A420) was recorded continuously in a SpectraMax Plus 384 spectrophotometer at 420 nm.

Data set [3] has as its system D-2-deoxyribose-5-phosphate aldolase (DERA) variant. As to conditions: directed evolution with in vitro screen; DeSantis et al., 2003; cited from earlier work.
Data set [4] has as its system Erwinia carotovora shuffled cellulase variant Cellulase 3, SEQ ID NO:8. Briefly: Steady-state kinetics of pNPC hydrolysis, Cellulase 3. Type of data set: biochemical. As to conditions: pH 7, room temperature. As for the experimental part: as §2
(§4) The three starting cellulases and the improved cellulase variants were subcloned into the E. coli T7 vector, pAED4, between NdeI and HindIII sites to give vectors pPPY2256 (CelN), pPPY2258 (CelA), pPPY2257 (CelV), pPPY2291 (Cel—3.7), and pPPY2292 (Cel—5.7). The cellulases were purified using Quick spin Ni-NTA affinity column (Qiagen). Protein concentration was determined using the extinction coefficient of the starting genes (ε=76670) and absorption at 280 nm. To determine the kinetic constants for the hydrolysis of pNPC, the cellulase chimeras were incubated at room temperature in phosphate buffer (25 mM K2HPO4, 100 mM NaCl, pH 7) containing seven different concentrations of pNPC ranging from 12 mM to 0.185 mM. The release of p-nitrophenol (εpH 7=4000M−1 cm−1, A420) was recorded continuously in a SpectraMax Plus 384 spectrophotometer at 420 nm.

Data set [5] concerns Erwinia carotovora shuffled cellulase variant Cellulase 5, SEQ ID NO:10. Briefly: Steady-state kinetics of pNPC hydrolysis, Cellulase 5. It counts as biochemical. Conditions: pH 7, room temperature. As for the experimental part: as §2, §4
In data set [6] the test system is Erwinia carotovora cellulase CelA (Cellulase A), catalytic domain, parent. Briefly: Steady-state kinetics of pNPC hydrolysis (release of p-nitrophenol), CelA. Type of data set: biochemical. Conditions: pH 7, room temperature.
Source text: as §1, with “To introduce the shuffled product into the shuffling vector via homologous recombination, 30 bp homology to the shuffling vector was introduced at the 5′ and 3′ end of the shuffled product by carrying an extra amplification step of the shuffling product primers VC1658-VC1659. 7.5 ng of shuffled product (1.4E11 shuffled product molecules assuming each base pair is 330M and the shuffled product was 1000 bp) was used as a template in a 100 ul amplification reaction. The product was purified in a 2% agarose gel.” left out
as §2, with “The cellulase chimeras were amplified from the shuffling vector using primers PPY100 and PPY103 and subcloned into the T7-expression vectors pAED4 between NdeI and HindIII sites. The cellulase chimeras were over expressed in E. coli and purified using a Nickel affinity column.” left out
The three starting cellulases and the improved cellulase variants were subcloned into the E. coli T7 vector, pAED4, between NdeI and HindIII sites to give vectors pPPY2256 (CelN), pPPY2258 (CelA), pPPY2257 (CelV), pPPY2291 (Cel—3.7), and pPPY2292 (Cel—5.7). […] Protein concentration was determined using the extinction coefficient of the starting genes (ε=76670) and absorption at 280 nm. […] The release of p-nitrophenol (εpH 7=4000M−1 cm−1, A420) was recorded continuously in a SpectraMax Plus 384 spectrophotometer at 420 nm.

Data set [7] relates to Erwinia carotovora shuffled cellulase variant Cellulase 8, SEQ ID NO:16. Kind of data set: Steady-state kinetics of pNPC hydrolysis, Cellulase 8. As to conditions: pH 7, room temperature. It counts as biochemical. As for the experimental part: as §2, §4
Data set [8] has as its system Erwinia carotovora shuffled cellulase variant Cellulase 6, SEQ ID NO:12. Kind of data set: Steady-state kinetics of pNPC hydrolysis, Cellulase 6. Type of data set: biochemical. As to conditions: pH 7, room temperature. As for the experimental part:
as §2, §4

For data set [9], the target named is Erwinia carotovora cellulase CelV (Cellulase V; = CelT, Cellulase T), catalytic domain, parent (Pectobacterium atrosepticum, UniProt Q6D5R0). Briefly: Steady-state kinetics of pNPC hydrolysis (release of p-nitrophenol), CelT = CelV. Type of data set: biochemical. Conditions: pH 7, room temperature.
Source text: as §1, §2, §3

In data set [10] the test system is Erwinia carotovora shuffled cellulase variant Cellulase 7, SEQ ID NO:14. Kind of data set: Steady-state kinetics of pNPC hydrolysis, Cellulase 7. Type of data set: biochemical. As to conditions: pH 7, room temperature. As for the experimental part:
as §2, §4

Data set [11] addresses Erwinia carotovora cellulase CelN (Cellulase N), catalytic domain, parent (Pectobacterium atrosepticum, UniProt Q59394). Kind of data set: Steady-state kinetics of pNPC hydrolysis (release of p-nitrophenol), CelN. Type of data set: biochemical. Conditions: pH 7, room temperature.
Source text: as §1, §2, §3

For data set [12], the system named is Erwinia carotovora shuffled cellulase variant Cellulase 4 (CELLVAR1, Colony 1), SEQ ID NO:3. Briefly: Steady-state kinetics of pNPC hydrolysis, Cellulase 4. Type of data set: biochemical. Conditions: pH 7, room temperature. As for the experimental part:
as §2, §4

Data set [13] concerns Erwinia carotovora CelN/CelA/CelV shuffled variant Cellulase 2 (Cel_5.7), vs CelN: A86V, S126N, E154D, T172S, C208R, T262S, A267T, A272T; SEQ ID NO:6. Kind of data set: Steady-state kinetics of pNPC hydrolysis, Cellulase 2. It counts as biochemical. As for the experimental part:
as §2, §4
A homology model of Cel—5.7 (cellulase 2) was made, again utilizing the same structure of B. agaradherans Cel5A, using Swiss-Model (FIG. 28b)^38. Four mutations are in the C-terminus loops that compose the extended carbohydrate binding site, while the other 4 map onto the surface of the enzyme. Although mutation T172S is located in C-terminus loop 5, it is 15 Å away from closest hexose ring in the substrate inhibitor. Mutations T262S, A267T, A272T are located in C-terminus loop 8. The mutation T262S is the closest to the substrate inhibitor, 6 Å away from the 6′-OH of the hexose ring in the −3 subsite. […] This mutation is located at the N-terminus of the barrel and points towards the solvent.

In data set [14] the test system is Erwinia carotovora CelN/CelA/CelV shuffled variant Cellulase 1 (CELLVAR2, Colony 2, Cel_3.7), vs CelN: S126N, D157E, Q186L, L193M, V2541, T288A, E295A, G30A …. Kind of data set: Steady-state kinetics of pNPC hydrolysis, Cellulase 1. Type of data set: biochemical. As for the experimental part: as §2, §4
Cel—3.7 (cellulase 1) contains nine crossovers. […] A homology model of Cel—3.7 (cellulase 1) was made, utilizing the B. agaradherans Cel5A structure (SwissProt: O85465; PDB: 1h5v) with the inhibitor methyl 4,4II,4III,4IV-tetrathio-α-cellopentoside bound to the active site, using Swiss-Model (FIG. 28A). The eight mutations accessible with the homology model map onto the surface of the enzyme, away from the extended carbohydrate binding site.

The test system of data set [15] is O=[N+]([O-])c1ccc(O[C@@H]2O[C@H](CO)[C@@H](O[C@@H]3O[C@H](CO)[C@@H](O)[C@H](O)[C@H]3O)[C@H](O)[C@H]2O)cc1. Kind of data set: Steady-state kinetics of pNPC hydrolysis (release of p-nitrophenol), CelT = CelV. Conditions: other: pNPC, pH 7, room temperature. Type of data set: biochemical, Erwinia carotovora.
Source text: as §1, §2, §3

On to `O=C1OC2(c3ccc(O)cc3Oc3cc(O)ccc32)c2ccccc21` [fluorescein], for which the Kd in [1] was 65 nM.
For “Erwinia carotovora cellulase CelN (Cellulase N), catalytic domain, parent (Pectobacterium atrosepticum)”, in data set [2], the Km came to 3400 µM, the kcat was 1300 s⁻¹ and the kcat/Km is 374000 M⁻¹ s⁻¹.
On to `O=C[C@H](O)CO` [D-glyceraldehyde], for which, in data set [3], the “improvement in catalytic efficiency” value is on record as 2.5 fold.
As to `O=[N+]([O-])c1ccc(O[C@@H]2O[C@H](CO)[C@@H](O[C@@H]3O[C@H](CO)[C@@H](O)[C@H](O)[C@H]3O)[C@H](O)[C@H]2O)cc1` [pNPC, p-nitrophenyl cellobioside], the Kcat in [4] amounted to 5000 s⁻¹; in data set [5] it was 6700 s⁻¹; in [6] it was 1400 s⁻¹; in data set [7], 840 s⁻¹; in data set [8], 210 s⁻¹; in [9] it was 1100 s⁻¹. Moreover, the Kcat is 110 s⁻¹ in data set [10]; 1300 s⁻¹ in [11]; 16000 s⁻¹ in data set [12]; 5200 s⁻¹ in [13] (pH 7, room temperature); 4300 s⁻¹ in data set [14] (pH 7, room temperature). The Kcat/Km in data set [4] is 1.4 × 10^6 sec^−1M^−1 and 1.4 × 10^6 M^−1sec^−1; in [5], 4.5e+06 M⁻¹ s⁻¹; in data set [6] it was 192000 M⁻¹ s⁻¹; in data set [7] it was 200000 M⁻¹ s⁻¹; in data set [8], 220000 M⁻¹ s⁻¹; in [9], 240000 M⁻¹ s⁻¹. The Kcat/Km in [10] was 8120 M⁻¹ s⁻¹ and 8100 M⁻¹ s⁻¹; in [11], 370000 M⁻¹ s⁻¹; in data set [12], 1.1e+07 M⁻¹ s⁻¹; in data set [13] (pH 7, room temperature), 2.1 × 10^6 sec^−1M^−1 and 2.1 × 10^6 M^−1sec^−1; in [14] (pH 7, room temperature) it was 1.4 × 10^6 sec^−1M^−1 and 1.4 × 10^6 M^−1sec^−1. Moreover, the Km is 3600 µM in data set [4]; 1500 µM in data set [5]; 7200 µM in data set [6]; 4300 µM in data set [7]; 960 µM and 1000 µM in data set [8]; 14000 µM in [10]. The Km in data set [12] was 1300 µM; in data set [13] (pH 7, room temperature) it was 2500 µM and 2470 µM; in data set [14] (pH 7, room temperature), 3200 µM. For the same molecule, the Kcat/KM turned out to be 193000 M⁻¹ s⁻¹ in data set [6]; 1.2e+07 M⁻¹ s⁻¹ in [12]; 1.3e+06 M⁻¹ s⁻¹ in data set [14] (pH 7, room temperature). The “increase in catalytic efficiency over the best starting cellulase, CelN” value in [13] (relative to CelN) is 5.3 fold and 5.7 fold; in data set [14] (relative to CelN), 3.6 fold and 3.7 fold.
Consider “Erwinia carotovora cellulase CelV (Cellulase V; = CelT, Cellulase T), catalytic domain, parent (Pectobacterium atrosepticum SCRI1043)”, for which, in [15], the Km is 4600 µM, the kcat turned out to be 1100 s⁻¹ and the kcat/Km turned out to be 237000 M⁻¹ s⁻¹.

For orientation: Km means the concentration of substrate that gives half-maximal velocity. Usually kcat stands for the maximal rate divided by the concentration of active sites. For orientation: kcat/Km means the turnover number divided by the Michaelis constant.
